Test results published in patent publication US11629192B2, “Methods and pharmaceutical compositions for the treatment of diseases mediated by the NRP-1/OBR complex signaling pathway” (INSERM (Institut National de la Sante et de la Recherche …, priority 2014, dated 2023).

Target: T1, OBR (Homo sapiens, UniProt P48357)
T1 sequence (P48357 22-1165): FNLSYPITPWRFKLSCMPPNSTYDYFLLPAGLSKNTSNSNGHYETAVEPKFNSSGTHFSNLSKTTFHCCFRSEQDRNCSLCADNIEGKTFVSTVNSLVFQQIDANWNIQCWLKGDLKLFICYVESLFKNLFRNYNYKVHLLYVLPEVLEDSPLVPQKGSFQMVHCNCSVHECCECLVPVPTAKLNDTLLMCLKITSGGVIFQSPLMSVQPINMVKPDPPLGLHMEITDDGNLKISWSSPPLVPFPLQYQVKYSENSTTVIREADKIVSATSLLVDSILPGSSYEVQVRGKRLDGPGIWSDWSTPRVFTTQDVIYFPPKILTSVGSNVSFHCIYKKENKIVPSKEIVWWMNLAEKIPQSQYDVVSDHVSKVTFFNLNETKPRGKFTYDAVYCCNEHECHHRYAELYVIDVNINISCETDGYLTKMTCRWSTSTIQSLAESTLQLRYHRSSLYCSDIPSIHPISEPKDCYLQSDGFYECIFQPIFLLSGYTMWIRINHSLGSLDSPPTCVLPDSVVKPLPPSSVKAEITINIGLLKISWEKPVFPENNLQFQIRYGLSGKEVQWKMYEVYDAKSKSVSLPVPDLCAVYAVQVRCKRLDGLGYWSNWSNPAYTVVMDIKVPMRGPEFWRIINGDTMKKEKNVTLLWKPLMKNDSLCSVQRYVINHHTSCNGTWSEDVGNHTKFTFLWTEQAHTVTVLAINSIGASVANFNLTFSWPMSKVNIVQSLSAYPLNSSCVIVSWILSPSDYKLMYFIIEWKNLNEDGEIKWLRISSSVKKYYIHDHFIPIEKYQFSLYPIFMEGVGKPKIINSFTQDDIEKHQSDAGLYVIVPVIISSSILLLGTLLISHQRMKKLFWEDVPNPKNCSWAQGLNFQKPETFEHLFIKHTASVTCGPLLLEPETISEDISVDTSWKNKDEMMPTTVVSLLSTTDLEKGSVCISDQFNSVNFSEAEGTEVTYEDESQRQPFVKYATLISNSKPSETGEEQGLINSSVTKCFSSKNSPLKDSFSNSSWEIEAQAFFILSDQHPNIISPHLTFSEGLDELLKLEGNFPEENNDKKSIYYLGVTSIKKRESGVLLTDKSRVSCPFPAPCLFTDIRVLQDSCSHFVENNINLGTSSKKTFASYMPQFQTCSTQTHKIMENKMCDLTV
Experiment: Bio-Layer Interferometry (BLI) binding to OBR
Text: FIG. 5. NRP-1, OBR and leptin interactions confirmation using a Bio-Layer Interferometry (BLI) technology (fortebio.com/bli-technology.html): A-Leptin (OB) interaction to OBR is used as a positive control. Human neuropilin-1 (hNRP-1) interact with human OBR with a high affinity and specifically with human leptin (hOB) but not with murine leptin (mOB). VEGF165 binding to hNRP-1 is used as a positive control. B-Leptin and Avastin association increases MDA-MB231 cells transmigration through […] pore Insert. Avastin treatment may prevent a negative feedback control by VEGF of the pro-angiogenic signaling pathway of Leptin. VEGF binds to OBR which confirms our hypothesis that should be more investigated.

- binding to OBR: binds
Substance: VEGF
